Experimental data taken from PMC8231556, “Inhibiting Endothelial Cell Function in Normal and Tumor Angiogenesis Using BMP Type I Receptor Macrocyclic Kinase Inhibitors” (Cancers, 2021).

Key:
Assay in all cases: radiometric kinase profiling (33 PanQinase)
Assay type in all cases: biochemical
KDR = biological target: T1, KDR (Homo sapiens, UniProt P35968); conditions: read-out: Inhibitory effect (%) KDR
T1 construct: purchased ProQinase (33PanQinase Activity Assay)
Procedure: (§1) The kinase inhibition profile of the compounds was determined by testing 96 protein kinases’ activity using a radiometric protein kinase assay (33 PanQinase® Activity Assay, Proqinase, Germany). In brief, 10 µL of non-radioactive ATP solution (in H2O), 25 µL of assay buffer/[γ-33 P]-ATP mixture, 5 µL of 0.1 μM the tested compound in 10% DMSO and 10 µL of enzyme/substrate were mixed in 96-well FlashPlatesTM (Perkin Elmer, Boston, MA, USA). The reaction was conducted at 30 °C for 60 min. To stop the reaction, 50 µL of 2% (v/v) H3PO4 was added into the protein kinase reaction cocktails. After which, with 200 µL 0.9% (w/v) NaCl twice, the incorporation of ^33 Pi (counting of “cpm”) was determined with a microplate scintillation counter (Wallac Microbeta, Boston, MA, USA). All protein kinase assays were performed using a BeckmanCoulter Biomek 2000/SL robotic system (Brea, CA, USA). The residual activity (in %) for each compound was normalized to 100% enzyme activity (untreated control) and background (negative control).

MAPKAPK2 = biological target: T2, MAPKAPK2 (Homo sapiens, UniProt P49137); conditions: read-out: Inhibitory effect (%) MAPKAPK2
T2 construct: purchased ProQinase (33PanQinase Activity Assay)
Procedure: as §1

JAK1 = biological target: T3, JAK1 (Homo sapiens, UniProt P23458); conditions: read-out: Inhibitory effect (%) JAK1
T3 construct: purchased ProQinase (33PanQinase Activity Assay)
Procedure: as §1

KIT = biological target: T4, KIT (Homo sapiens, UniProt P10721); conditions: read-out: Inhibitory effect (%) KIT
T4 construct: purchased ProQinase (33PanQinase Activity Assay)
Procedure: as §1

NUAK1 = biological target: T5, NUAK1 (Homo sapiens, UniProt O60285); conditions: read-out: Inhibitory effect (%) NUAK1
T5 construct: purchased ProQinase (33PanQinase Activity Assay)
T5 sequence (O60285 1-661): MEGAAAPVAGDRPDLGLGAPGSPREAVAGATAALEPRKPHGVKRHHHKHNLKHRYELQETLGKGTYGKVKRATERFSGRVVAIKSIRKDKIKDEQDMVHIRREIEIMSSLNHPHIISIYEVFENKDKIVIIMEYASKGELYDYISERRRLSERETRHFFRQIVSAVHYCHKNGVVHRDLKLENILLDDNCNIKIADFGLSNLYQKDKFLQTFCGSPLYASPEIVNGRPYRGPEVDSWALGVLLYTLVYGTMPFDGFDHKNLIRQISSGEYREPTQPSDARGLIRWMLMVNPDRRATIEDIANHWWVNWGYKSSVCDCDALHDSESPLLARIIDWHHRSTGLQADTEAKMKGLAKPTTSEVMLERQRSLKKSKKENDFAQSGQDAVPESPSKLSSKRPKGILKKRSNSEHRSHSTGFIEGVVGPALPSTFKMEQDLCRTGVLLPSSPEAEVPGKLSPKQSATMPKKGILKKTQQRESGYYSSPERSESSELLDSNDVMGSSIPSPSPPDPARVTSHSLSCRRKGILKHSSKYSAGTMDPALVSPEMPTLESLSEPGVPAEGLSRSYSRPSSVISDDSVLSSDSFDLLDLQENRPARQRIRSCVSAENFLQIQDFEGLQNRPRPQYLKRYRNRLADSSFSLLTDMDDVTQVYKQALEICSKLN
Procedure: as §1

EPHA5 = biological target: T6, EPHA5 (Homo sapiens, UniProt P54756); conditions: read-out: Inhibitory effect (%) EPHA5
T6 construct: purchased ProQinase (33PanQinase Activity Assay)
Procedure: as §1

MAPK9 = biological target: T7, MAPK9 (Homo sapiens, UniProt P45984); conditions: read-out: Inhibitory effect (%) MAPK9
T7 construct: purchased ProQinase (33PanQinase Activity Assay)
Procedure: as §1

FYN = biological target: T8, FYN (Homo sapiens, UniProt P06241); conditions: read-out: Inhibitory effect (%) FYN
T8 construct: purchased ProQinase (33PanQinase Activity Assay)
Procedure: as §1

CAMKK1 = biological target: T9, CAMKK1 (Homo sapiens, UniProt Q8N5S9); conditions: read-out: Inhibitory effect (%) CAMKK1
T9 construct: purchased Proqinase, Germany
Procedure: as §1

PIM2 = biological target: T10, PIM2 (Homo sapiens, UniProt Q9P1W9); conditions: read-out: Inhibitory effect (%) PIM2
T10 construct: purchased ProQinase (33PanQinase Activity Assay)
Procedure: as §1

PRKD2 = biological target: T11, PRKD2 (Homo sapiens, UniProt Q9BZL6); conditions: read-out: Inhibitory effect (%) PRKD2
T11 construct: purchased ProQinase (33PanQinase Activity Assay)
T11 sequence (Q9BZL6 1-878): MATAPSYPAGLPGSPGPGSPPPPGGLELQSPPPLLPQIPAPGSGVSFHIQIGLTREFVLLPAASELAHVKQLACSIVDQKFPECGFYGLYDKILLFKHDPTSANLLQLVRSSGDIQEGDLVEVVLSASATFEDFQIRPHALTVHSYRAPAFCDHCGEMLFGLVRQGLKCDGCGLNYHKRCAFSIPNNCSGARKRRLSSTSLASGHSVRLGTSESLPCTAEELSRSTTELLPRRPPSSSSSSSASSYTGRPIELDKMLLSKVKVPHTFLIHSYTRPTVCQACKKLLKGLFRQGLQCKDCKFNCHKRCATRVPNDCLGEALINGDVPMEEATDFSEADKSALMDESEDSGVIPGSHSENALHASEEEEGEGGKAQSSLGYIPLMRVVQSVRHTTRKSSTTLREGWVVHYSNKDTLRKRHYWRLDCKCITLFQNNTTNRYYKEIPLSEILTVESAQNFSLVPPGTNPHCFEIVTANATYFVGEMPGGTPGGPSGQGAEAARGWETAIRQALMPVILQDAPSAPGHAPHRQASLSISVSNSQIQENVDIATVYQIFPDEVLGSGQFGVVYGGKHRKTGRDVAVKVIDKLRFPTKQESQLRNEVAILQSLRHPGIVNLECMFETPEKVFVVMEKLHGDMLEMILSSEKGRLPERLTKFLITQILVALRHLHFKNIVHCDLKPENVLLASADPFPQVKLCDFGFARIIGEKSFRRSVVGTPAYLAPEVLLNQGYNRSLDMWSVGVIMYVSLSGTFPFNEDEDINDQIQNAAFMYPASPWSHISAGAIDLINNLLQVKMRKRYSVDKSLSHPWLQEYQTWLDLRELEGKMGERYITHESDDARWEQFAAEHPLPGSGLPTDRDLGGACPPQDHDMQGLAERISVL
Procedure: as §1

DYRK1A = biological target: T12, DYRK1A (Homo sapiens, UniProt Q13627); conditions: read-out: Inhibitory effect (%) DYRK1A
T12 construct: purchased Proqinase, Germany
Procedure: as §1

IGF1R = biological target: T13, IGF1R (Homo sapiens, UniProt P08069); conditions: read-out: Inhibitory effect (%) IGF1R
T13 construct: purchased ProQinase (33PanQinase Activity Assay)
Procedure: as §1

RPS6KB1 = biological target: T14, RPS6KB1 (Homo sapiens, UniProt P23443); conditions: read-out: Inhibitory effect (%) RPS6KB1
T14 construct: purchased ProQinase (33PanQinase Activity Assay)
Procedure: as §1

T4 sequence (P10721 26-976): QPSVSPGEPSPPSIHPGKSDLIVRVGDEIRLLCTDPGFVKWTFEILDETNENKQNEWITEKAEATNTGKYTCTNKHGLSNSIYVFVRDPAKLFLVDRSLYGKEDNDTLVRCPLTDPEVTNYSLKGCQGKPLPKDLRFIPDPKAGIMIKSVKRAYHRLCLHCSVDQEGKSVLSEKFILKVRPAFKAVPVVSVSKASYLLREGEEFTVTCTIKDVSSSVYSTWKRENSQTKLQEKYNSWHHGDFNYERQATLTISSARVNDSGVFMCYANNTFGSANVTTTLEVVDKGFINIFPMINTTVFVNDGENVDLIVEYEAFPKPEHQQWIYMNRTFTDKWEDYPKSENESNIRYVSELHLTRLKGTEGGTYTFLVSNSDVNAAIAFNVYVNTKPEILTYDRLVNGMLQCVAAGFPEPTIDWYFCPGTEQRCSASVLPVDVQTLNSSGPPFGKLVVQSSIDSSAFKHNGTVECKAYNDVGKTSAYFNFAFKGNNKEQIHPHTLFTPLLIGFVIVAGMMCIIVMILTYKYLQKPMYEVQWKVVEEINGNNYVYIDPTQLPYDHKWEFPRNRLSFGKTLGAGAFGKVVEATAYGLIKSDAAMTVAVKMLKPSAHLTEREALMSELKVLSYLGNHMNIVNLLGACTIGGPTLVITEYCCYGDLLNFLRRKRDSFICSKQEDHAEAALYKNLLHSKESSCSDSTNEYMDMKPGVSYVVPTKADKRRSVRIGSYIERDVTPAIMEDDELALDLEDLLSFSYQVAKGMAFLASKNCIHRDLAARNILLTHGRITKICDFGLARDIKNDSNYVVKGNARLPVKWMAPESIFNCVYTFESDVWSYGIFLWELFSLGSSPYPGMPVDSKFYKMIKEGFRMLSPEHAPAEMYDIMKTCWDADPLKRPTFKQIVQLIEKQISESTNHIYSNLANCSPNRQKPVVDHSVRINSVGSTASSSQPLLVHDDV
T3 sequence (P23458 whole entry): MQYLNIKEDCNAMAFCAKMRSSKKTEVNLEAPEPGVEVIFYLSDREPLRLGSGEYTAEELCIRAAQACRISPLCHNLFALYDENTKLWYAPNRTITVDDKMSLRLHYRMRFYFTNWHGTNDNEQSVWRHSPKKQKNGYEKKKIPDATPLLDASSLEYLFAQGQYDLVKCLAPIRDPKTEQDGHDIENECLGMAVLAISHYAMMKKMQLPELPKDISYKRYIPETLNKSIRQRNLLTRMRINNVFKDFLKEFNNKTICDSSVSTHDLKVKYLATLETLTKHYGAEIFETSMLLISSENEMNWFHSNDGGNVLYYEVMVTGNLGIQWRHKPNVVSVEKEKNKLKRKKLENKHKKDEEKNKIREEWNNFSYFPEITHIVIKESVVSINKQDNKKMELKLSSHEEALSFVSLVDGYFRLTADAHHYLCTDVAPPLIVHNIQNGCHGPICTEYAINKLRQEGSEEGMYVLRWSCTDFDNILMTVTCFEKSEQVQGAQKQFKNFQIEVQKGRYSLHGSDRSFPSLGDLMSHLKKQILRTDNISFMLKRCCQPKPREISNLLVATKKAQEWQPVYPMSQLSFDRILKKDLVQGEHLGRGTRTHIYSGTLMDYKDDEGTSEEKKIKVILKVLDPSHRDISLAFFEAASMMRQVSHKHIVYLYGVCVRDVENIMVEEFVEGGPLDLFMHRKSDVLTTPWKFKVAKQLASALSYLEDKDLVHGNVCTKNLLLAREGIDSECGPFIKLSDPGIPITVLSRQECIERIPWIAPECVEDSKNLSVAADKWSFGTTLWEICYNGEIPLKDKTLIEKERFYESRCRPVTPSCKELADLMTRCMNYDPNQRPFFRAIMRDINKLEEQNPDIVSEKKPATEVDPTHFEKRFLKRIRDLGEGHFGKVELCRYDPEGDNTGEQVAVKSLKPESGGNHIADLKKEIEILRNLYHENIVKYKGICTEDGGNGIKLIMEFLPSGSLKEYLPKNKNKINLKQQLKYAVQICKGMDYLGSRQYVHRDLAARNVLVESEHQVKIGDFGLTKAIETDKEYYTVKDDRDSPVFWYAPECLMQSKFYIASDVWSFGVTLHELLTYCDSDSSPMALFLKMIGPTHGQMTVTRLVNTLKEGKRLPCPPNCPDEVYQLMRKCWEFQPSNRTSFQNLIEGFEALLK
T8 sequence (P06241 whole entry): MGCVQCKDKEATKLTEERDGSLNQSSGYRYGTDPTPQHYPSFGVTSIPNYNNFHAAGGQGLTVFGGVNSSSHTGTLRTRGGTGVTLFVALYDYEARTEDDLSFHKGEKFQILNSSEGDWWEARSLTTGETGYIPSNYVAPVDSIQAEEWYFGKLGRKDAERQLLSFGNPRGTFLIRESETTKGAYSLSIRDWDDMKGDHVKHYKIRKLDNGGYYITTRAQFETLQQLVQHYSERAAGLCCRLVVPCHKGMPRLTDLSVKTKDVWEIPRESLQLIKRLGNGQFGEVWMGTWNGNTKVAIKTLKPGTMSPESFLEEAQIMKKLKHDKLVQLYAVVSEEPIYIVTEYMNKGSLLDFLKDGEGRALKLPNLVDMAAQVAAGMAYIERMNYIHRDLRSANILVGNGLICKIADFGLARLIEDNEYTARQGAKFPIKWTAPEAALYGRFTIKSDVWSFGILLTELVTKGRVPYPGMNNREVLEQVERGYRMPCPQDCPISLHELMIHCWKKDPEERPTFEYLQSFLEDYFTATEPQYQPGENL
T6 sequence (P54756 25-1037): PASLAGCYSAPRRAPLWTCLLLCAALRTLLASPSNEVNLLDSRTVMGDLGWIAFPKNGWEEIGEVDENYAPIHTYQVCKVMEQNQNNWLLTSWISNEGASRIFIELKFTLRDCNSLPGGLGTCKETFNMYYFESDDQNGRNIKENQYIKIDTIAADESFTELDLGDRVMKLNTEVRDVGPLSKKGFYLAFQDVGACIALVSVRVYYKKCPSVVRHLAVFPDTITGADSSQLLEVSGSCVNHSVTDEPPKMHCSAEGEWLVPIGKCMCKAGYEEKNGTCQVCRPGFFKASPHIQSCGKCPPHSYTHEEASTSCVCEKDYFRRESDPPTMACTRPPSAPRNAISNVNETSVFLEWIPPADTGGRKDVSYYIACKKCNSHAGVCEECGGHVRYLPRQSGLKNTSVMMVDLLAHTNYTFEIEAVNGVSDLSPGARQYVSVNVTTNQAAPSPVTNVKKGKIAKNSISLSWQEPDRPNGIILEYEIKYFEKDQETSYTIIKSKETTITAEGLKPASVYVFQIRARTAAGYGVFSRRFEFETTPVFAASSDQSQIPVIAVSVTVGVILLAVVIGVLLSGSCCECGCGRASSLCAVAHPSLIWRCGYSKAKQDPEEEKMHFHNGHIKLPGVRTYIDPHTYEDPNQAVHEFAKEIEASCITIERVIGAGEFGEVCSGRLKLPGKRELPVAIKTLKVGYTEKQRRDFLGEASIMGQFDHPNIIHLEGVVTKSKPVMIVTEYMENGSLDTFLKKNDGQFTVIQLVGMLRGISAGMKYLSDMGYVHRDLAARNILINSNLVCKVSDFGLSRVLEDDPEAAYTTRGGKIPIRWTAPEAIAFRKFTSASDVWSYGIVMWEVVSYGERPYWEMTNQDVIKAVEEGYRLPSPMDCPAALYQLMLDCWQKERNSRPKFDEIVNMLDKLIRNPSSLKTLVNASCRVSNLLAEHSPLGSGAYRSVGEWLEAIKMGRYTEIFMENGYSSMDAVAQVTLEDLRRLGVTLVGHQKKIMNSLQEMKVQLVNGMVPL
T2 sequence (P49137 whole entry): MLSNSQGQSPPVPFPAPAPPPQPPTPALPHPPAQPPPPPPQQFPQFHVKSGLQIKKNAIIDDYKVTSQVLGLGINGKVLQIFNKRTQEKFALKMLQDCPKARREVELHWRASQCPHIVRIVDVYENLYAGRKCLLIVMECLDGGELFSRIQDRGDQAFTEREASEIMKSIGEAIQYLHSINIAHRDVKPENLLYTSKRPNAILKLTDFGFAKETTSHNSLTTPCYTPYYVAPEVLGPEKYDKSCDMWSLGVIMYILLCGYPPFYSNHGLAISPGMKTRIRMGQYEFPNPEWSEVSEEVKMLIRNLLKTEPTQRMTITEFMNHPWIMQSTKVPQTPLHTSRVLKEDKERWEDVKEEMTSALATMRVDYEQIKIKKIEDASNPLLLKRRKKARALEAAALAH
T7 sequence (P45984 whole entry): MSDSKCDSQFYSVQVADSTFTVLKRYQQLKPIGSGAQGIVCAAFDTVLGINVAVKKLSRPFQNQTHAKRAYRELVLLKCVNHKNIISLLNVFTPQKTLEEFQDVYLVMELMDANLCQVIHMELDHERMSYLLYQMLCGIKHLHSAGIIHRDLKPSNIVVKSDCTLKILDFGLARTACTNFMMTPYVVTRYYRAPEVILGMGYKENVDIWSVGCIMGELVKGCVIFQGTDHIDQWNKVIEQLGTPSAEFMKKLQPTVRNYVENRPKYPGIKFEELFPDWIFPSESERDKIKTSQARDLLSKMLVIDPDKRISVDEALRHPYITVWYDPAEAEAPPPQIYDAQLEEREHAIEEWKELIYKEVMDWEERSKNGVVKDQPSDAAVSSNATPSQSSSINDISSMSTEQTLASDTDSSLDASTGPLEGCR
T9 sequence (Q8N5S9 whole entry): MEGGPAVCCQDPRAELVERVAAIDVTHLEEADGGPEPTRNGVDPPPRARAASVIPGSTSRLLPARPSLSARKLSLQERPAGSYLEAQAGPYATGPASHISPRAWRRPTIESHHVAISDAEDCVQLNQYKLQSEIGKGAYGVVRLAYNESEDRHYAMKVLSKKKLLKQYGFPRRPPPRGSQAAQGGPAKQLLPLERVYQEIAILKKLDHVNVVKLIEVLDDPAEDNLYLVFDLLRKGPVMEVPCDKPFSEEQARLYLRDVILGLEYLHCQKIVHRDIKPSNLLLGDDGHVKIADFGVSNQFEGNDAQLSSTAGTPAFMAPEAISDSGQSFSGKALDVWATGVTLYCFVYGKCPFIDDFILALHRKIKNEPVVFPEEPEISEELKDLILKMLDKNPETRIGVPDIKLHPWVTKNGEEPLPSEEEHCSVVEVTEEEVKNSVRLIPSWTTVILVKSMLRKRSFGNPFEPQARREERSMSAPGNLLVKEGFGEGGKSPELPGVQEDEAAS

`c1ccc2c(-c3cnn4cc(-c5ccc(N6CCNCC6)cc5)cnc34)ccnc2c1` [LDN-193189, reference compound] was tested, and the inhibition at 0.1 µM (KDR) was -6.35%, the inhibition at 0.1 µM (MAPKAPK2) was 0.06% and the inhibition at 0.1 µM (JAK1) was -10.9%. It also gave an inhibition at 0.1 µM (KIT) of -20.3%, an inhibition at 0.1 µM (NUAK1) of -20.2% and an inhibition at 0.1 µM (EPHA5) of -0.32%. The inhibition at 0.1 µM (MAPK9) was -21.3%, the inhibition at 0.1 µM (FYN) was 28.1% and the inhibition at 0.1 µM (CAMKK1) was 0.77%. The inhibition at 0.1 µM (PIM2) was 6.22%, the inhibition at 0.1 µM (PRKD2) was -23.1% and the inhibition at 0.1 µM (DYRK1A) was -15.6%. For the same compound, the inhibition at 0.1 µM (IGF1R) was 8.78% and the inhibition at 0.1 µM (RPS6KB1) was 13%.

Compound `CN1CCc2cccc(c2)Nc2nccc(n2)N2CCCc3cc(ccc32)C1` [OD16] has an inhibition at 0.1 µM (KDR) of 0.8%, an inhibition at 0.1 µM (MAPKAPK2) of -14.6% and an inhibition at 0.1 µM (JAK1) of 23.1%. The inhibition at 0.1 µM (KIT) was 33%, the inhibition at 0.1 µM (NUAK1) was 74.3% and the inhibition at 0.1 µM (EPHA5) was -65.7%. The inhibition at 0.1 µM (MAPK9) was -11%, the inhibition at 0.1 µM (FYN) was -31% and the inhibition at 0.1 µM (CAMKK1) was -1.72%. It also gave an inhibition at 0.1 µM (PIM2) of -5.63%, an inhibition at 0.1 µM (PRKD2) of 32.2% and an inhibition at 0.1 µM (DYRK1A) of -6.26%. For the same compound, the inhibition at 0.1 µM (IGF1R) was -39.5% and the inhibition at 0.1 µM (RPS6KB1) was -15%.

With `CN1CCC(=O)NCCNc2ccn3ncc(c3n2)-c2cccc(c2)C1` [OD29] the inhibition at 0.1 µM (KDR) was 37.6%, the inhibition at 0.1 µM (MAPKAPK2) was -4.8% and the inhibition at 0.1 µM (JAK1) was -3.74%. It also gave an inhibition at 0.1 µM (KIT) of 7.49%, an inhibition at 0.1 µM (NUAK1) of 5.32% and an inhibition at 0.1 µM (EPHA5) of 14.8%. It also gave an inhibition at 0.1 µM (MAPK9) of 5.44%, an inhibition at 0.1 µM (FYN) of 24.6% and an inhibition at 0.1 µM (CAMKK1) of -29.5%. For the same compound, the inhibition at 0.1 µM (PIM2) was 1.97%, the inhibition at 0.1 µM (PRKD2) was 5.45% and the inhibition at 0.1 µM (DYRK1A) was -7.58%. The inhibition at 0.1 µM (IGF1R) was 13.9% and the inhibition at 0.1 µM (RPS6KB1) was -3.52%.
